Like-named read-outs stand apart in the source and are kept apart here.
Key:
A. ureafaciens sialidase [1] = biological target: T1, A. ureafaciens sialidase (Paenarthrobacter ureafaciens, UniProt Q5W7Q2); assay: Sialidase inhibition assay; assay type: biochemical, Arthrobacter ureafaciens; conditions: read-out: Percentage inhibition, A. ureafaciens
PmST1 [2] = biological target: T2, PmST1 (Pasteurella multocida, UniProt Q15KI8); assay: biochemical; conditions: for inhibition at 100 µM / inhibition at 1000 µM: read-out: Percentage inhibition, PmST1
SpNanB = SpNanB (Streptococcus pneumoniae serotype 4, UniProt Q54727); assay: biochemical; conditions: for inhibition at 100 µM / inhibition at 1000 µM: read-out: Percentage inhibition, SpNanB
SpNanB, sequence (Q54727 30-697): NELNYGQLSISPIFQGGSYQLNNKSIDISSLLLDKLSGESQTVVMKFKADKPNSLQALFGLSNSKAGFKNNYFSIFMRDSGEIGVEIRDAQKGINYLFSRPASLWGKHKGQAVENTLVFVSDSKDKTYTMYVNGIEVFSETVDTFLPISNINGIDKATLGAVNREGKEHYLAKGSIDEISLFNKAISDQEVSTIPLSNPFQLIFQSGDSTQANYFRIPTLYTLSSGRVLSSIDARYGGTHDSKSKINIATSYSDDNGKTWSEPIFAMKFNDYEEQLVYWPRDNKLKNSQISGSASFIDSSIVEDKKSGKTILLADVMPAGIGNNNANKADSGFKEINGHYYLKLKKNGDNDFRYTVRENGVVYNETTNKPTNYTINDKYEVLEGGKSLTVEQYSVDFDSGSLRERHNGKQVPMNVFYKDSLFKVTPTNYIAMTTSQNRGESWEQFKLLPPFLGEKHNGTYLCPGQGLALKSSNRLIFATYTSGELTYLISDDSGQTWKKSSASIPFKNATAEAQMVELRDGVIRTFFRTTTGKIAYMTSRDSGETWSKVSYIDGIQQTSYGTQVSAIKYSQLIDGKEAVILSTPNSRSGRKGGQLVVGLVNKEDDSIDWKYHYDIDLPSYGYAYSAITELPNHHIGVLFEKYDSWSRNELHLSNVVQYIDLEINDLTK

[3] = test system: C. perfringens sialidase CpNanI; assay type: biochemical, Clostridium perfringens; conditions: inhibitor:sialidase 2:1 molar ratio, 23 °C; for sensitivity of CpNanI to the covalent inhibitor in the time course study: Figures 2A, S2A
SpNanA [4] = biological target: T3, SpNanA (Streptococcus pneumoniae, UniProt P62575); assay: biochemical
T3 sequence (P62575 54-1035): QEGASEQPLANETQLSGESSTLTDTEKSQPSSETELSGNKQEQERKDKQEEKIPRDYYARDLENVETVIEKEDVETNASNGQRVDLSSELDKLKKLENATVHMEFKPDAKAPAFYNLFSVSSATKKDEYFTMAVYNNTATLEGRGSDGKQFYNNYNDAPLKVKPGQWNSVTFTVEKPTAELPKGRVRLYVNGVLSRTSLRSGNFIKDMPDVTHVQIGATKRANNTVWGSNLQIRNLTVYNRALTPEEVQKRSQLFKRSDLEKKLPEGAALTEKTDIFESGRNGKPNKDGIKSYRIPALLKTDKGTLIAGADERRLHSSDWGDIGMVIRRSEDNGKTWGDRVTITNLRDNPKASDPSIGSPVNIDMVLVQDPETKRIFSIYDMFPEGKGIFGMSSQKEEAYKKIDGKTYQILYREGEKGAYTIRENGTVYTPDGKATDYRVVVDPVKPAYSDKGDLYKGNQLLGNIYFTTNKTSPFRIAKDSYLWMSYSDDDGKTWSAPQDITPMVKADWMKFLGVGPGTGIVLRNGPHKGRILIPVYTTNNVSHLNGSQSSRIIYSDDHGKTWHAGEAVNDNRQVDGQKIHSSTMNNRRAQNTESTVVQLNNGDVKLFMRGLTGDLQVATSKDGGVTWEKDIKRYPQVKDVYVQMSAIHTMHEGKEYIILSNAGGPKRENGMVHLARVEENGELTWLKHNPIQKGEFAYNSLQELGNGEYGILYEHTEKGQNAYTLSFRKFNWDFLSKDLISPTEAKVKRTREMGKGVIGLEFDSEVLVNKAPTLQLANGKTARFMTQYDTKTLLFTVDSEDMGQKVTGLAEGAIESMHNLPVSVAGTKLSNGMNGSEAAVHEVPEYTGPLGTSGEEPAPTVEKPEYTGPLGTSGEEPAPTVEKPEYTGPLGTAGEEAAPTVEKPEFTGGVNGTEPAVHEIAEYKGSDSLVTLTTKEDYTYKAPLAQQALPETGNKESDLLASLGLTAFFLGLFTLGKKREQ

hNEU2 [5] = biological target: T4, hNEU2 (Homo sapiens, UniProt Q9Y3R4); assay: Sialidase inhibition assay; assay type: biochemical; conditions: read-out: Percentage inhibition, hNEU2
T4 sequence (Q9Y3R4 whole entry): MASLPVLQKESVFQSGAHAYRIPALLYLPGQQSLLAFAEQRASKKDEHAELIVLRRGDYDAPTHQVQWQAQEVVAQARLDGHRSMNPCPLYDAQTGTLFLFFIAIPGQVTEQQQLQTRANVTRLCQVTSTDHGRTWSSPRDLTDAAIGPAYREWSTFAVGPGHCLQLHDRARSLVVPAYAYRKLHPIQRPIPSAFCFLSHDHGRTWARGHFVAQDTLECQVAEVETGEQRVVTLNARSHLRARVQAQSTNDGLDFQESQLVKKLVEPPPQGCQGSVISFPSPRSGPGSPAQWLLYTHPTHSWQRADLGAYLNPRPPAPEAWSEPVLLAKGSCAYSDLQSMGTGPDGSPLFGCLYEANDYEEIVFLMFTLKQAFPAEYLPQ

V. cholerae sialidase [6] = biological target: T5, V. cholerae sialidase (Vibrio cholerae serotype O1, UniProt P0C6E9); assay: biochemical; assay type: biochemical
T5 sequence (P0C6E9 25-781): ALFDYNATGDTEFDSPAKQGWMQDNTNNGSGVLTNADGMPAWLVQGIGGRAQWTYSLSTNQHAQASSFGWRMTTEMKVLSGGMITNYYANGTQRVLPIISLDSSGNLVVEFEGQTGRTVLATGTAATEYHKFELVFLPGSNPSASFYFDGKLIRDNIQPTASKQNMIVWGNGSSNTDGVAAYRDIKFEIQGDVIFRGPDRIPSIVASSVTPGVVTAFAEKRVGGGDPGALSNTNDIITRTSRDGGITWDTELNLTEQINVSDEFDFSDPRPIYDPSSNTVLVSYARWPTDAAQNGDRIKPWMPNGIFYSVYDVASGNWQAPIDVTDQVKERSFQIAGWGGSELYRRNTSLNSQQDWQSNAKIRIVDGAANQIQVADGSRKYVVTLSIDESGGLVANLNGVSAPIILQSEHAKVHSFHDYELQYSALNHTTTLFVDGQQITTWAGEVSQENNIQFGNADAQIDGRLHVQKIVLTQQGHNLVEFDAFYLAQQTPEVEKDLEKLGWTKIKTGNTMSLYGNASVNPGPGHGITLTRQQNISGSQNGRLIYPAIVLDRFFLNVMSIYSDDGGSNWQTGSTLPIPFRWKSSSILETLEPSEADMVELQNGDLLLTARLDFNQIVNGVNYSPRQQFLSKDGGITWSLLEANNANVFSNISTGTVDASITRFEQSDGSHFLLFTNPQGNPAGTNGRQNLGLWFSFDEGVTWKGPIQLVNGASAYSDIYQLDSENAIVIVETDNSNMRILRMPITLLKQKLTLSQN

BiNanH2 [7] = biological target: T6, BiNanH2 (Bifidobacterium longum subsp. infantis, UniProt A0ACD7UU12); assay: biochemical; assay type: biochemical, Bifidobacterium longum subsp. infantis ATCC15697
[8] = biological target: C. perfringens sialidase (CpNanI) (Clostridium perfringens, UniProt A0A0H2YQR1); assay: biochemical
C. perfringens sialidase (CpNanI), sequence (A0A0H2YQR1 27-694 limits assumed): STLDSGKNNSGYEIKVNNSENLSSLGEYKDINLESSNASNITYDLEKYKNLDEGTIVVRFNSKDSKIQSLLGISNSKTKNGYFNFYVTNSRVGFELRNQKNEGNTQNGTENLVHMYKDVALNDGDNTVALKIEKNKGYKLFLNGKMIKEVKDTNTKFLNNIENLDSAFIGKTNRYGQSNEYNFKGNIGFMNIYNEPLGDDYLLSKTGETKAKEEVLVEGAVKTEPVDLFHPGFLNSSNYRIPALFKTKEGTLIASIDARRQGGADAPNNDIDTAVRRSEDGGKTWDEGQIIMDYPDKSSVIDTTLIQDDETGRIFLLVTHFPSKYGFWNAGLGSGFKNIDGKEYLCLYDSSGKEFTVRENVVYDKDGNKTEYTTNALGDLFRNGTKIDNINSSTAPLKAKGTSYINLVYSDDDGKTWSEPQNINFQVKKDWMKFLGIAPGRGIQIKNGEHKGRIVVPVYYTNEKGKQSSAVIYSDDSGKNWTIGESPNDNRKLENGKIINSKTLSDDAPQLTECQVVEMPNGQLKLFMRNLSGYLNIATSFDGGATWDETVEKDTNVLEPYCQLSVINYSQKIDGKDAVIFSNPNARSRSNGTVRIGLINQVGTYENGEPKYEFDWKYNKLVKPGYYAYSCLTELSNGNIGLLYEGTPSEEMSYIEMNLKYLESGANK

SpNanC [9] = biological target: T7, SpNanC (Streptococcus pneumoniae, UniProt A0A0H2UQE4); assay: biochemical; conditions: for inhibition at 100 µM / inhibition at 1000 µM: read-out: Percentage inhibition, SpNanC
A. ureafaciens sialidase [10] = biological target: T1, A. ureafaciens sialidase; conditions: read-out: IC50, A. ureafaciens; substrate Neu5Acα2–3GalβpNP; ref [47]; cited from earlier work
SpNanC [11] = biological target: T7, SpNanC; conditions: read-out: IC50, SpNanC; substrate Neu5Acα2–3GalβpNP; ref [25]; cited from earlier work
PmST1 [12] = biological target: T2, PmST1; conditions: read-out: IC50, PmST1; substrate Neu5Acα2–3GalβpNP; ref [25]; cited from earlier work
hNEU2 [13] = biological target: T4, hNEU2; assay type: biochemical; conditions: inhibitor:sialidase 2:1 molar ratio; 23 °C; Figures 2E, S2E
V. cholerae sialidase [14] = biological target: T5, V. cholerae sialidase; assay type: biochemical; conditions: inhibitor:sialidase 2:1 molar ratio; 23 °C
SpNanA [15] = biological target: T3, SpNanA; assay type: biochemical; conditions: inhibitor:sialidase 2:1 molar ratio, 23 °C
BiNanH2 [16] = biological target: T6, BiNanH2; assay type: biochemical, Bifidobacterium longum subsp. infantis ATCC15697; conditions: inhibitor:sialidase 2:1 molar ratio, 23 °C
[17] = read-out: Percentage inhibition, SpNanA
[18] = read-out: Percentage inhibition, V. cholerae
[19] = read-out: Percentage inhibition, BiNanH2
[20] = read-out: Percentage inhibition, C. perfringens

CC(=O)N[C@@H]1[C@@H](O)[C@H](F)[C@](F)(C(=O)O)O[C@H]1[C@H](O)[C@H](O)CN=[N+]=[N-] [Compound 2, 5-Acetamido-9-azido-2,3,5,9-tetradeoxy-3-fluoro-D-erythro-α-L-gluco-non-2-ulopyranosylonic fluoride]
inhibition at 100 µM (A. ureafaciens sialidase [1]): 99.9 ± 0.2%
IC50 (PmST1 [2]): > 1 mM
inhibition at 100 µM (PmST1 [2]): < 1%
inhibition at 1000 µM (PmST1 [2]): 9.3 ± 2.3%
inhibition at 100 µM (SpNanB): 26.8 ± 0.2%
inhibition at 1000 µM (SpNanB): 51.9 ± 2.2%
sensitivity of CpNanI to the covalent inhibitor in the time course study [3]: also sensitive
IC50 (SpNanA [4]): 0.21 µM
inhibition at 100 µM (SpNanA [4]; [17]): 85.8 ± 0.7%
inhibition at 100 µM (hNEU2 [5]): 82.3 ± 2.8%
IC50 (V. cholerae sialidase [6]): 730 nM
inhibition at 100 µM (V. cholerae sialidase [6]; [18]): 99.2 ± 0.5%
inhibition at 100 µM (BiNanH2 [7]; [19]): 98.9%
IC50 [8]: 0.73 µM
inhibition at 100 µM [8, 20]: 99.9 ± 0.1%
inhibition at 100 µM (SpNanC [9]): < 1%
inhibition at 1000 µM (SpNanC [9]): 53.9 ± 0.1%

[N-]=[N+]=N[C@@H]1[C@@H](O)[C@H](F)[C@](F)(C(=O)O)O[C@H]1[C@H](O)[C@H](O)CO [Compound 3, 5-Azido-2,3,5-trideoxy-3-fluoro-D-erythro-α-L-gluco-non-2-ulopyranosylonic fluoride]
inhibition at 100 µM (A. ureafaciens sialidase [1]): 75.2 ± 0.2%
IC50 (PmST1 [2]): > 1 mM
inhibition at 100 µM (PmST1 [2]): < 1%
inhibition at 1000 µM (PmST1 [2]): 7.8 ± 0.3%
IC50 (SpNanB): > 1 mM
inhibition at 100 µM (SpNanB): 35.1 ± 0.8%
inhibition at 1000 µM (SpNanB): 38 ± 0.9%
IC50 (SpNanA [4]): > 1000 µM
inhibition at 100 µM (SpNanA [4]; [17]): < 1%
inhibition at 1000 µM (SpNanA [4]; [17]): 29.6 ± 0.9%
inhibition at 100 µM (hNEU2 [5]): 37.5 ± 1.2%
inhibition at 1000 µM (hNEU2 [5]): 80.7 ± 1.2%
inhibition at 100 µM (V. cholerae sialidase [6]; [18]): 25 ± 1%
inhibition at 1000 µM (V. cholerae sialidase [6]; [18]): 76.6 ± 4.6%
inhibition at 100 µM (BiNanH2 [7]; [19]): 40.8 ± 3.4%
inhibition at 1000 µM (BiNanH2 [7]; [19]): 85.6 ± 0.5%
IC50 [8]: > 1000 µM
inhibition at 100 µM [8, 20]: 29.8 ± 1.2%
inhibition at 1000 µM [8, 20]: 30 ± 0.8%
inhibition at 100 µM (SpNanC [9]): < 1%
inhibition at 1000 µM (SpNanC [9]): 6.5 ± 0.8%

CC(=O)N[C@H]1[C@H]([C@H](O)[C@H](O)CO)OC(C(=O)O)=C[C@@H]1O [Neu5Ac2en, 2-deoxy-2,3-didehydro-N-acetylneuraminic acid]
IC50 (A. ureafaciens sialidase [10]): 8.1 ± 0.3 µM
IC50 (SpNanC [11]): > 1 mM
IC50 (PmST1 [12]): > 1 mM

CC(=O)N[C@@H]1[C@@H](O)[C@@H](F)[C@](F)(C(=O)O)O[C@H]1[C@H](O)[C@H](O)CN=[N+]=[N-] [Compound 6, 5-Acetamido-9-azido-2,3,5,9-tetradeoxy-3-fluoro-D-erythro-α-L-manno-non-2-ulopyranosylonic fluoride]
inhibition at 100 µM (A. ureafaciens sialidase [1]): 99.9 ± 0.1%
IC50 (PmST1 [2]): > 1 mM
inhibition at 100 µM (PmST1 [2]): < 1%
inhibition at 1000 µM (PmST1 [2]): 6 ± 0.4%
IC50 (SpNanB): > 1 mM
inhibition at 100 µM (SpNanB): 16.7 ± 1.6%
inhibition at 1000 µM (SpNanB): 43.8 ± 1.4%
sensitivity of hNEU2 to the covalent inhibitor in the time course study (hNEU2 [13]): except for hNEU2
time for de-activation of CpNanI [3]: < 10 min
sensitivity of CpNanI to the covalent inhibitor in the time course study [3]: sensitive
IC50 (SpNanA [4]): 0.033 µM
inhibition at 100 µM (SpNanA [4]; [17]): 99.9 ± 0.1%
inhibition at 100 µM (hNEU2 [5]): 1.5 ± 0.3%
inhibition at 1000 µM (hNEU2 [5]): 53.4 ± 1.3%
IC50 (V. cholerae sialidase [6]): 180 nM
inhibition at 100 µM (V. cholerae sialidase [6]; [18]): 99.9 ± 0.6%
IC50 for V. cholerae sialidase better than that for hNEU2 (V. cholerae sialidase [6]; selectivity V. cholerae sialidase versus hNEU2): at least 500 fold
inhibition at 100 µM (BiNanH2 [7]; [19]): 98.8 ± 2.2%
IC50 for BiNanH2 better than that for hNEU2 (BiNanH2 [7]; selectivity BiNanH2 versus hNEU2): at least 500 fold
time for de-activation of V. cholerae sialidase (V. cholerae sialidase [14]): < 10 min
time for de-activation of SpNanA (SpNanA [15]): < 10 min
sensitivity of SpNanA to the covalent inhibitor in the time course study (SpNanA [15]; Figures 2C, S2C): sensitive
time for de-activation of BiNanH2 (BiNanH2 [16]): < 10 min
sensitivity of BiNanH2 to the covalent inhibitor in the time course study (BiNanH2 [16]; Figures 2D, S2D): sensitive
IC50 [8]: 0.024 µM
inhibition at 100 µM [8, 20]: 99.9 ± 0.1%
inhibition at 100 µM (SpNanC [9]): < 1%
inhibition at 1000 µM (SpNanC [9]): 83.7 ± 3.5%

CC(=O)N[C@@H]1[C@@H](O)[C@@H](F)[C@](F)(C(=O)O)O[C@H]1[C@H](O)[C@H](O)CO [Compound 5, 5-Acetamido-2,3,5-trideoxy-3-fluoro-D-erythro-α-L-manno-non-2-ulopyranosylonic fluoride]
inhibition at 100 µM (A. ureafaciens sialidase [1]): 99.9 ± 0.2%
IC50 (PmST1 [2]): > 1 mM
inhibition at 100 µM (PmST1 [2]): < 1%
inhibition at 1000 µM (PmST1 [2]): 3 ± 0.6%
IC50 (SpNanB): > 1 mM
inhibition at 100 µM (SpNanB): 12 ± 0.2%
inhibition at 1000 µM (SpNanB): 19 ± 0.2%
IC50 (SpNanA [4]): 0.13 µM
inhibition at 100 µM (SpNanA [4]; [17]): 99.9 ± 0.1%
inhibition at 100 µM (hNEU2 [5]): 69.7 ± 0.4%
IC50 (V. cholerae sialidase [6]): 330 nM
inhibition at 100 µM (V. cholerae sialidase [6]; [18]): 96.8 ± 1.4%
inhibition at 100 µM (BiNanH2 [7]; [19]): 98.9 ± 0.5%
IC50 [8]: 0.18 µM
inhibition at 100 µM [8, 20]: 99.9 ± 0.1%
inhibition at 100 µM (SpNanC [9]): < 1%
inhibition at 1000 µM (SpNanC [9]): 55.2 ± 0.4%

O=C(CO)N[C@@H]1[C@@H](O)[C@H](F)[C@](F)(C(=O)O)O[C@H]1[C@H](O)[C@H](O)CO [Compound 4, 5-glycolamido-2,3,5-trideoxy-3-fluoro-D-erythro-α-L-gluco-non-2-ulopyranosylonic fluoride]
inhibition at 100 µM (A. ureafaciens sialidase [1]): 96.1 ± 0.6%
IC50 (PmST1 [2]): > 1 mM
inhibition at 100 µM (PmST1 [2]): < 1%
inhibition at 1000 µM (PmST1 [2]): 22.4 ± 0.1%
IC50 (SpNanB): > 1 mM
inhibition at 100 µM (SpNanB): 25.3 ± 1.7%
inhibition at 1000 µM (SpNanB): 26 ± 4.9%
inhibition at 100 µM (SpNanA [4]; [17]): 78.4 ± 0.5%
inhibition at 100 µM (hNEU2 [5]): 80.4 ± 1.3%
IC50 (V. cholerae sialidase [6]): 1600 ± 100 nM
inhibition at 100 µM (V. cholerae sialidase [6]; [18]): 97.8 ± 0.1%
inhibition at 100 µM (BiNanH2 [7]; [19]): 87.3 ± 0.8%
inhibition at 100 µM [8, 20]: 71.6 ± 1.2%
inhibition at 100 µM (SpNanC [9]): < 1%
inhibition at 1000 µM (SpNanC [9]): 5.5 ± 0.2%

CC(=O)N[C@@H]1[C@@H](O)[C@H](F)[C@](F)(C(=O)O)O[C@H]1[C@H](O)[C@H](O)CO [Compound 1, 5-Acetamido-2,3,5-trideoxy-3-fluoro-D-erythro-α-L-gluco-non-2-ulopyranosylonic fluoride]
inhibition at 100 µM (A. ureafaciens sialidase [1]): 99.2 ± 0.3%
IC50 (PmST1 [2]): > 1 mM
inhibition at 100 µM (PmST1 [2]): < 1%
inhibition at 1000 µM (PmST1 [2]): 4.3 ± 0.1%
IC50 (SpNanB): > 1 mM
inhibition at 100 µM (SpNanB): 11.8 ± 1%
inhibition at 1000 µM (SpNanB): 30.2 ± 2.2%
inhibition at 100 µM (SpNanA [4]; [17]): 99.7 ± 0.3%
inhibition at 100 µM (hNEU2 [5]): 75.4 ± 0.6%
IC50 (V. cholerae sialidase [6]): 2000 ± 100 nM
inhibition at 100 µM (V. cholerae sialidase [6]; [18]): 97.7 ± 0.3%
inhibition at 100 µM (BiNanH2 [7]; [19]): 95.4 ± 0.9%
inhibition at 100 µM [8, 20]: 80.6 ± 0.7%
IC50 (SpNanC [9]; read-out: IC50, SpNanC): > 1 mM
inhibition at 100 µM (SpNanC [9]): < 1%
inhibition at 1000 µM (SpNanC [9]): 25.1 ± 6.1%

Reference: publication PMC6660241 (The Journal of organic chemistry, 2019)
